Legend:
[1] = molecular target: IDH1 R132C (Homo sapiens (Human), UniProt O75874, R132C); experiment: Biochemical assay for inhibition of mutant IDH1 R132C; conditions: tested in triplet
Description: The present disclosure provides a biochemical assay method for detecting the IDH inhibition and selectivity of the compounds by detecting IDH enzyme activity directly.
Wild-type IDH enzyme could convert NADP^+ to NADPH when it catalyzes the α-KG producing reaction. Mutant IDH enzyme could convert NADPH to NADP^+ when it catalyzes the D-2-HG producing reaction. So the activity of wild-type and mutant IDH1/2 could be measured by monitoring NADPH level change: in the reaction catalyzed by wild-type IDH1/2, the newly generated NADPH is utilized instantly by coupled diaphorase-resazurin reaction to generate resorufin which is fluorescent (at Excitation 544 nm, Emission 590 nm) and thus NADPH is monitored indirectly; while in the reaction catalyzed by mutant IDH1/2, NADPH is directly monitored as it is fluorescent (at Excitation 340 nm, Emission 460 nm). By monitoring the change of NADPH level in the reaction, the enzyme activity could be determined rapidly and efficiently, IC50 of a compound could also be assayed.
The test compounds were prepared into 50 mM stock solutions in DMSO and stored at −20° C. Each test compound stock was further diluted to obtain a 100× stock solution at a concentration of 200 μM, 100 μM, 50 μM, 25 μM, 12.5 jμM, 6.25 μM and 3.125 μM, respectively, for the final use on the day of test.
Inhibition of Mutant IDHJ (R132H or R132C):
Solution A was prepared by combining 1 M Tris-HCl pH7.5 (300 μL), 5 M NaCl (450 μL), 1 M MgCl2 (150 μL), 1 M DTT (15 μL), 20 mg/mL BSA (37.5 μL), 20 mM NADPH (20 μL), and 0.5 mM α-KG (40 μL), followed by adding deionized water to a final volume of 15 mL.
Reaction buffer was prepared by combining 1 M Tris-HCl pH 7.5 (200 μL), 5 M NaCl (300 μL), 1 M MgCl2 (100 μL), 1 M DTT (10 μL) and 20 mg/mL BSA (25 μL), followed by adding deionized water to a final volume of 10 mL.
Solution B was prepared by combining the reaction buffer (5 mL) and […] IDH1-R132H (5.21 μL) or 107 μM IDH1-R132C (4.67 μL).
148 μL Solution A was added into each sample well of a 96-well plate P1, and then 2 μL of the test compound solution at each concentration and 2 μL of DMSO (negative control/blank) were added into individual sample well respectively. 50 μL of Solution B was added into each of the sample wells having test compounds and one sample well having DMSO only, and 50 μL of reaction buffer was added into another sample well having DMSO only, respectively. P1 was put into BioTek Synergy H4 Microplate reader (BioTek Instruments Inc., Winooski, U.S.), and the program was set as follows: 37° C., shake plate 5 seconds, run kinetic mode, total detection time 20 min, detection intervals 40 seconds, detection mode fluorescence (at Excitation 340 nm, Emission 460 nm). The data were exported, the relative enzyme activity and the half-maximal inhibitory concentration (IC50) for the test compound were calculated. Relative enzyme activity was calculated as the absolute value of the slope of the Emission 460 reads of each well plotted against time (which represents the conversion rate of ca-KG to 2-HG through IDH1 modulated utilization of NADPH). The Dose-response curve was drawn and the IC50 was calculated via fitting. The IDH inhibition and selectivity of each test compound can be evaluated according to the effect of the compounds on the IDH enzyme activity.
The IDH inhibition activity of the compounds were assessed according to Test 5 of the Biological evaluation section. The test for mutant IDH1 R132H/R132C inhibition of each compound was carried out in triplet. For IDH1 R132H, the enzyme activity of exemplary Compounds 16, 21, 22, 23, 24 and 31 is plotted as a function of logarithm of the concentration of the compound in FIGS. 8A-8C, 9A-9C, 10A-10C, 11A-11C, 12A-12C and 13A-13C, respectively. […]

[2] = Metabolic stability in dog liver microsome; conditions: for K: Mean; for microsomal CLint at 1 μM / half-life at 1 μM: microsomes, pH 7.4
Description: The liver microsomes of mouse, rat, dog, monkey and human were purchased from Corning Inc., and were stored at −60° C. prior to use. The acetonitrile and NADPH were purchased from Honeywell International Inc. (New Jersey, U.S.) and Roche Inc. (Basel, Swiss).
Reactions were initiated by adding NADPH to a final concentration of 1 mM. The final volume of each reaction mixture was 0.2 ml, and all reactions were performed in duplicate. At each set time point (0, 5, 15, 30 and 60 min), a small aliquot (e.g., 20 μl) was transferred from the reaction system into ice-cold internal standard (IS) containing acetonitrile to quench the reaction and to precipitate the protein. After vortex and centrifuge at 3700 rpm for 10 min, the supernatant was injected into LC-MS/MS for analysis.
In vitro microsomal clearance was estimated based on determination of elimination half-life (T1/2) of compounds disappearance from their initial concentrations. Peak area ratios of each compound (test or control) to IS was calculated. Ln (% Control) versus Incubation Time (min) curve was plotted, and the slope of a linear fitting line was calculated. Drug elimination rate constant k (min^−1), T1/2 (min), and in vitro intrinsic clearance CLint (mL·min^−1·mg^−1 proteins) was calculated according to the following equations: k=−slope T1/2=0.693/k CLint=k/Cprotein where Cprotein (mg·mL^−1) is the microsomal protein concentration in the incubation system. Test 3: Metabolic Stability Assay in Mouse Plasma
In this study, the metabolic stability of the compounds was assessed in mouse, rat, dog, monkey and human liver microsome according to the method disclosed in Test 2 of the Biological evaluation section.

Chain of IDH1 R132C (O75874 whole entry R132C): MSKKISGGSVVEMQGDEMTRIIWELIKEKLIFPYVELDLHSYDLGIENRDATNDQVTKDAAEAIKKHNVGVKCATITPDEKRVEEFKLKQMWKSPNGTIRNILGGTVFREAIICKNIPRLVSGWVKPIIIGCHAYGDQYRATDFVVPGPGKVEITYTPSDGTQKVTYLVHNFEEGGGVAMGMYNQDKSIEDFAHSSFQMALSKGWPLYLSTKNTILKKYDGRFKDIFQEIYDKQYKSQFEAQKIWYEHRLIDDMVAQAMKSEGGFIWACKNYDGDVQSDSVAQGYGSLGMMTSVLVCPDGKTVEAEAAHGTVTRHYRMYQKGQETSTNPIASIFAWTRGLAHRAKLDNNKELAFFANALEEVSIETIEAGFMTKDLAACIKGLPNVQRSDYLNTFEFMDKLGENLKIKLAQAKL

SMILES	IC50 [1] [µM]	other results
CCN1Cc2c(ccnc2N[C@@H](C)c2ccc(Br)cc2)C1=O [Compound 1, (S)-4-(1-(4-bromophenyl)ethylamino)-2-ethyl-2,3-dihydro-1H-pyrrolo[3,4-c]pyridin-1-one]	10 to 15	
CCN1Cc2c(ccnc2N[C@@H](C)c2ccc(F)cc2)C1=O [Compound 2, (S)-2-ethyl-4-(1-(4-fluorophenyl)ethylamino)-2,3-dihydro-1H-pyrrolo[3,4-c]pyridin-1-one]	10 to 15	
CCN1Cc2c(ccnc2N[C@@H](C)c2ccc(C)cc2)C1=O [Compound 3, (S)-2-ethyl-4-(1-p-tolylethylamino)-2,3-dihydro-1H-pyrrolo[3,4-c]pyridin-1-one]	10 to 15	
C[C@H](Nc1nccc2c1CN(C1CC1)C2=O)c1ccccc1 [Compound 4, (S)-2-cyclopropyl-4-(1-phenylethylamino)-2,3-dihydro-1H-pyrrolo[3,4-c]pyridin-1-one]	10 to 15	
CCCCN1Cc2c(ccnc2N[C@@H](C)c2ccccc2)C1=O [Compound 5, (S)-2-butyl-4-(1-phenylethylamino)-2,3-dihydro-1H-pyrrolo[3,4-c]pyridin-1-one]	10 to 15	
C[C@H](Nc1nccc2c1CN(Cc1ccccc1)C2=O)c1ccccc1 [Compound 6, (S)-2-benzyl-4-(1-phenylethylamino)-2,3-dihydro-1H-pyrrolo[3,4-c]pyridin-1-one]	10 to 15	
COc1ccc(CN2Cc3c(ccnc3N[C@@H](C)c3ccccc3)C2=O)cc1 [Compound 7, (S)-2-(4-methoxybenzyl)-4-(1-phenylethylamino)-2,3-dihydro-1H-pyrrolo[3,4-c]pyridin-1-one]	10 to 15	
CC(C)N1Cc2c(ccnc2N[C@@H](C)c2ccccc2)C1=O [Compound 8, (S)-2-isopropyl-4-(1-phenylethylamino)-2,3-dihydro-1H-pyrrolo[3,4-c]pyridin-1-one]	10 to 15	
COCCN1Cc2c(ccnc2N[C@@H](C)c2ccccc2)C1=O [Compound 9, (S)-2-(2-methoxyethyl)-4-(1-phenylethylamino)-2,3-dihydro-1H-pyrrolo[3,4-c]pyridin-1-one]	10 to 15	
CCN1Cc2c(ccnc2N[C@@H](C)c2ccccc2)C1=O [Compound 10, (S)-2-ethyl-4-(1-phenylethylamino)-2,3-dihydro-1H-pyrrolo[3,4-c]pyridin-1-one]	10 to 15	
CCN1Cc2c(ccnc2N[C@@H](C)c2ccc(OC)cc2)C1=O [Compound 11, (S)-2-ethyl-4-(1-(4-methoxyphenyl)ethylamino)-2,3-dihydro-1H-pyrrolo[3,4-c]pyridin-1-one]	10 to 15	
CCOC(=O)c1ccc([C@H](C)Nc2nccc3c2CN(CC)C3=O)cc1 [Compound 12, (S)-ethyl-4-(1-(2-ethyl-1-oxo-2,3-dihydro-1H-pyrrolo[3,4-c]pyridin-4-ylamino)ethyl)benzoate]	10 to 15	
CCN1Cc2c(ccnc2N[C@@H](C)c2ccc(C(=O)Nc3ccccc3)cc2)C1=O [Compound 13, (S)-4-(1-(2-ethyl-1-oxo-2,3-dihydro-1H-pyrrolo[3,4-c]pyridin-4-ylamino)ethyl)-N-phenylbenzamide]	10 to 15	
CCN1Cc2c(ccnc2N[C@@H](C)c2ccc(-c3cn(C)nn3)cc2)C1=O [Compound 14, (S)-2-ethyl-4-(1-(4-(1-methyl-1H-1,2,3-triazol-4-yl)phenyl)ethylamino)-2,3-dihydro-1H-pyrrolo[3,4-c]pyridin-1-one]	10 to 15	
CCN1Cc2c(ccnc2N[C@@H](C)c2ccc(Oc3cccc(C)c3)cc2)C1=O [Compound 15, (S)-2-ethyl-4-((1-(4-(m-tolyloxy)phenyl)ethyl)amino)-2,3-dihydro-1H-pyrrolo[3,4-c]pyridin-1-one]	≤ 1.5	
CCN1Cc2c(ccnc2N[C@@H](C)c2ccc(Oc3ccccc3C)cc2)C1=O [Compound 17, (S)-2-ethyl-4-(1-(4-(o-tolyloxy)phenyl)ethylamino)-2,3-dihydro-1H-pyrrolo [3,4-c]pyridin-1-one]	≤ 1.5	
CCN1Cc2c(ccnc2N[C@@H](C)c2ccc(Oc3ccccc3)cc2)C1=O [Compound 18, (S)-2-ethyl-4-(1-(4-phenoxyphenyl)ethylamino)-2,3-dihydro-1H-pyrrolo[3,4-c]pyridin-1-one]	≤ 1.5	
CCN1Cc2c(ccnc2N[C@@H](C)c2ccc(Oc3ccc(OC)cc3)cc2)C1=O [Compound 19, (S)-2-ethyl-4-(1-(4-(4-methoxyphenoxy)phenyl)ethylamino)-2,3-dihydro-1H-pyrrolo[3,4-c]pyridin-1-one]	≤ 1.5	
CCN1Cc2c(ccnc2N[C@@H](C)c2ccc(Oc3ccc(F)cc3)cc2)C1=O [Compound 20, (S)-2-ethyl-4-(1-(4-(4-fluorophenoxy)phenyl)ethylamino)-2,3-dihydro-1H-pyrrolo[3,4-c]pyridin-1-one]	1.5 to 10	
Cc1ncc2n1-c1ccc(Cl)cc1C(c1ccccc1F)=NC2 [Positive control, Midazolam, reference compound]		K ([2]; dog liver microsome): 0.140 min⁻¹; microsomal CLint at 1 μM ([2]; dog): 702 µL/min/mg; K ([2]; human liver microsome): 0.0612 min⁻¹; half-life at 1 μM ([2]; human): 11.3 min; microsomal CLint at 1 μM ([2]; human): 306 µL/min/mg; K ([2]; monkey liver microsome): 0.211 min⁻¹; half-life at 1 μM ([2]; monkey): 3.29 min; microsomal CLint at 1 μM ([2]; monkey): 1050 µL/min/mg; K ([2]; mouse liver microsome): 0.0964 min⁻¹; half-life at 1 μM ([2]; mouse): 7.19 min; microsomal CLint at 1 μM ([2]; mouse): 482 µL/min/mg; K ([2]; rat liver microsome): 0.174 min⁻¹; half-life at 1 μM ([2]; rat): 3.98 min; microsomal CLint at 1 μM ([2]; rat): 871 µL/min/mg

Source: US10752626B2, “Iso-citrate dehydrogenase (IDH) inhibitor” (SHANGHAI METON PHARMACEUTICAL CO., LTD, priority 2016, dated 2020)
